The first assay addresses T1, Mitogen-activated protein kinase 14 (Homo sapiens, UniProt Q16539). In words: Inhibition of p38-alpha MAPK at 10 uM.
T1 sequence (Q16539 whole entry): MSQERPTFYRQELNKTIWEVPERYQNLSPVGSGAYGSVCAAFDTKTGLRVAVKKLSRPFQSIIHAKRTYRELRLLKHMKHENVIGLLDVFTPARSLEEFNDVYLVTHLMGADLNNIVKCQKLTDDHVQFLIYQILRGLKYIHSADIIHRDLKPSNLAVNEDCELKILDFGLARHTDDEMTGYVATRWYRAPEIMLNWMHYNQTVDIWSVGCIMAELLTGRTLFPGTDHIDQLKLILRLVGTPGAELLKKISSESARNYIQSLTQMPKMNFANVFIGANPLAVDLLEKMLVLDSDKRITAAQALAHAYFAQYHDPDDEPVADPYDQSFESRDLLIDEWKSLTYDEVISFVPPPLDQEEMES
On to `OCCCOc1onc(-c2ccc(F)cc2)c1-c1ccncc1`, for which the inhibition (commonly the share of the control response that was lost under treatment) worked out at 9.8%.

Molecule `COCCOc1onc(-c2ccc(F)cc2)c1-c1ccncc1` gave an inhibition of 14.4%.

In turn, `CC(C)n1oc(=O)c(-c2ccc(F)cc2)c1-c1ccncc1` had an inhibition of 42.2%.

As to `COc1onc(-c2ccc(F)cc2)c1-c1ccncc1`, the inhibition was 26.5%.

Molecule `OCCOc1onc(-c2ccc(F)cc2)c1-c1ccncc1` displayed an inhibition of 14.7%.

In turn, `CCOc1onc(-c2ccc(F)cc2)c1-c1ccncc1` registered an inhibition of 13.6%.

The molecule `O=C1c2ccccc2C(=O)N1CCn1oc(=O)c(-c2ccc(F)cc2)c1-c1ccncc1` yielded an inhibition of 41.9%.

Molecule `COCOc1onc(-c2ccc(F)cc2)c1-c1ccncc1` had an inhibition of 27.8%.

In turn, `CC(C)Oc1onc(-c2ccc(F)cc2)c1-c1ccncc1` returned an inhibition of 11.9%.

For `Fc1ccc(-c2noc(OCC3CC3)c2-c2ccncc2)cc1`, the inhibition came out at 26.4%.

`CC(c1ccccc1)n1oc(=O)c(-c2ccc(F)cc2)c1-c1ccncc1` (stereo unspecified) gave an inhibition of 27.5%.

`O=c1on(CCN2CCCCC2)c(-c2ccncc2)c1-c1ccc(F)cc1`: the inhibition was determined as 38.3%.

For the molecule `Fc1ccc(-c2noc(OCC3CO3)c2-c2ccncc2)cc1` (stereo unspecified), the inhibition amounted to 23.7%.

In another assay the target is T1, Mitogen-activated protein kinase 14. In words: Inhibition of p38-alpha MAPK.
With `O=c1on(CC2CO2)c(-c2ccncc2)c1-c1ccc(F)cc1` (stereo unspecified), the IC50 (in general, the point on the concentration scale where inhibition reaches its midpoint) came out at 3830 nM. This lies in the single-digit micromolar range.

Regarding `CCNC(=O)n1oc(=O)c(-c2ccc(F)cc2)c1-c1ccncc1`, half-maximal inhibition (IC50) required 230 nM.

`Oc1onc(-c2ccncc2)c1-c1ccc(F)cc1` returned an IC50 of 390 nM.

`CCn1oc(=O)c(-c2ccc(F)cc2)c1-c1ccncc1`: the IC50 was determined as 1630 nM.

On to `CCOC(=O)CCNC(=O)n1oc(=O)c(-c2ccc(F)cc2)c1-c1ccncc1`, for which half-maximal inhibition (IC50) required 970 nM.

`CSc1nc(-c2ccc(F)cc2)c(-c2ccncc2)n1CCCO` had an IC50 of 813 nM.

Consider `O=c1on(CC2CC2)c(-c2ccncc2)c1-c1ccc(F)cc1`, for which the concentration for half-maximal inhibition (IC50) came out at 2130 nM.

In turn, `O=c1o[nH]c(-c2ccc(F)cc2)c1-c1ccncc1` came in with an IC50 of 1400 nM.

As for `COCn1oc(=O)c(-c2ccc(F)cc2)c1-c1ccncc1`, the IC50 was determined as 2130 nM. This IC50 lies about 1.5-fold higher than the previous one.

Consider `Cc1ccc(S(=O)(=O)n2oc(=O)c(-c3ccc(F)cc3)c2-c2ccncc2)cc1`, for which the IC50 is 480 nM. This IC50 lies about 4.4-fold lower than the previous one.

`O=C(Nc1ccc(F)cc1)n1oc(=O)c(-c2ccc(F)cc2)c1-c1ccncc1` came in with an IC50 of 320 nM.

`COCCOCn1oc(=O)c(-c2ccc(F)cc2)c1-c1ccncc1` registered a concentration for half-maximal inhibition (IC50) of 3830 nM.

Take `O=c1on(C(=S)Nc2ccc(F)cc2)c(-c2ccncc2)c1-c1ccc(F)cc1`: the IC50 was 350 nM.

As to `O=c1on(CCO)c(-c2ccncc2)c1-c1ccc(F)cc1`, the IC50 was 2500 nM.

Consider `O=c1on(CCCO)c(-c2ccncc2)c1-c1ccc(F)cc1`, for which the IC50 is 1150 nM. This IC50 is about 2.2-fold lower than that of the molecule before.

On to `CC(=O)n1oc(=O)c(-c2ccc(F)cc2)c1-c1ccncc1`, for which the IC50 worked out at 120 nM.

As for `CSCCn1oc(=O)c(-c2ccc(F)cc2)c1-c1ccncc1`, 3900 nM corresponded to half-maximal inhibition (IC50).

For `CCOCCn1oc(=O)c(-c2ccc(F)cc2)c1-c1ccncc1`, inhibition was half-maximal at 1320 nM (IC50).

Values taken from ChEMBL document CHEMBL1144828, “Isoxazolone based inhibitors of p38 MAP kinases” (J Med Chem, 2008).
